Data reported in paper PMC10924921, “Mi-2β promotes immune evasion in melanoma by activating EZH2 methylation” (Nature Communications, 2024).

Legend:
Assay in all cases: biochemical
Set-up in all cases: KINOMEscan active-site competition binding panel (468 kinase assays), per cent of control at 1000 nM
Settings in all cases: KINOMEscan per cent of control (binding competition); read-out: Percent Control
PLK3 = PLK3 (Homo sapiens, UniProt Q9H4B4)
Excerpt: (§1) Figure S7 / Percent Control

PCTK2 = target: T1, PCTK2 (Homo sapiens, UniProt Q00537)
T1 construct: gene CDK17
Excerpt: as §1

NEK11 = NEK11 (Homo sapiens, UniProt Q8NG66)
Excerpt: as §1

ICK = target: T2, ICK (Homo sapiens, UniProt Q9UPZ9)
T2 construct: gene CILK1
Excerpt: as §1

[1] = target: T3, RPS6KA4(Kin.Dom.2-C-terminal) (Homo sapiens, UniProt O75676)
T3 construct: Kin.Dom.2-C-terminal
Excerpt: as §1

PAK4 = PAK4 (Homo sapiens, UniProt O96013)
Excerpt: as §1

BRK = target: T4, BRK (Homo sapiens, UniProt Q13882)
T4 construct: gene PTK6
Excerpt: as §1

MST1R = MST1R (Homo sapiens, UniProt Q04912)
Excerpt: as §1

PIM2 = PIM2 (Homo sapiens, UniProt Q9P1W9)
Excerpt: as §1

MYLK4 = MYLK4 (Homo sapiens, UniProt Q86YV6)
Excerpt: as §1

PKAC-alpha = target: T5, PKAC-alpha (Homo sapiens, UniProt P17612)
T5 construct: gene PRKACA
Excerpt: as §1

PDGFRB = PDGFRB (Homo sapiens, UniProt P09619)
Excerpt: as §1

EGFR(L747-T751del,Sins) = EGFR(L747-T751del,Sins) (Homo sapiens, UniProt P00533, DEL747-750/T751S)
Excerpt: as §1

ALK(L1196M) = ALK(L1196M) (Homo sapiens, UniProt Q9UM73, L1196M)
Excerpt: as §1

PKN2 = PKN2 (Homo sapiens, UniProt Q16513)
Excerpt: as §1

CLK1 = CLK1 (Homo sapiens, UniProt P49759)
Excerpt: as §1

IKK-epsilon = target: T6, IKK-epsilon (Homo sapiens, UniProt Q14164)
T6 construct: gene IKBKE
Excerpt: as §1

PIKFYVE = PIKFYVE (Homo sapiens, UniProt Q9Y2I7)
Excerpt: as §1

[2] = target: T7, ABL1(Q252H)-phosphorylated (Homo sapiens, UniProt P00519, Q252H)
T7 construct: phosphorylated
Excerpt: as §1

CSNK1G3 = CSNK1G3 (Homo sapiens, UniProt Q9Y6M4)
Excerpt: as §1

FRK = FRK (Homo sapiens, UniProt P42685)
Excerpt: as §1

RIPK2 = RIPK2 (Homo sapiens, UniProt O43353)
Excerpt: as §1

PHKG2 = PHKG2 (Homo sapiens, UniProt P15735)
Excerpt: as §1

FLT3(D835Y) = FLT3(D835Y) (Homo sapiens, UniProt P36888, D835Y)
Excerpt: as §1

Sequence of PHKG2 (P15735 whole entry): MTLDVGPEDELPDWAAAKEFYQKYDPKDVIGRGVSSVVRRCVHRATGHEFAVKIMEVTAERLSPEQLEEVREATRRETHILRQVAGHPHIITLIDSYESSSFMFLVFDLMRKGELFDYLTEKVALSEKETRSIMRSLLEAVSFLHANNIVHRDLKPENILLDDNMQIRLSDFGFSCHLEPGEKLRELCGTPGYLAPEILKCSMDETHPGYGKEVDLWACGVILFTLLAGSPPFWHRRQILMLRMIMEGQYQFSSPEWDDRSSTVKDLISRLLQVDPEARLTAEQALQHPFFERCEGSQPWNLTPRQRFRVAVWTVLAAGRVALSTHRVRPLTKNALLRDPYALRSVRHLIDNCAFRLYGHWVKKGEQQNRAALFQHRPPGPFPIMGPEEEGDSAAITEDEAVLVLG
T6 sequence (Q14164 whole entry): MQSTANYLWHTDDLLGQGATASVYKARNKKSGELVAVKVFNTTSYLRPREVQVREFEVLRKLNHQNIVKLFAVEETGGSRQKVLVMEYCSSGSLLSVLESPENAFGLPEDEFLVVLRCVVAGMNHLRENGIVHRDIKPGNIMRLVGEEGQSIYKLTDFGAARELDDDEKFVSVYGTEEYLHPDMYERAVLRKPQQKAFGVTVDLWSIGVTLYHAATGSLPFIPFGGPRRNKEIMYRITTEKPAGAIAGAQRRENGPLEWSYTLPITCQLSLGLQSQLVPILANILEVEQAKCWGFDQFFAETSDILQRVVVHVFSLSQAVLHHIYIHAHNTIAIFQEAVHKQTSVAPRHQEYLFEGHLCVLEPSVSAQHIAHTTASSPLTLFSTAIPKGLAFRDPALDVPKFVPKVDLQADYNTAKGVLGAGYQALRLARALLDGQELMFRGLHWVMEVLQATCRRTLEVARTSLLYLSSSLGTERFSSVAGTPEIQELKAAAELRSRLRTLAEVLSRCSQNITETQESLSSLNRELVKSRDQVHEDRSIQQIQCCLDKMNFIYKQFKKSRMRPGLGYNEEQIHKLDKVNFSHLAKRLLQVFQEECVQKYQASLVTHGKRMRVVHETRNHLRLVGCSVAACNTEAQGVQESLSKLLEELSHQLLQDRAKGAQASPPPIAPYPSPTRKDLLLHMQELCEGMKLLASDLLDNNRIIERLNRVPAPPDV
T2 sequence (Q9UPZ9 whole entry): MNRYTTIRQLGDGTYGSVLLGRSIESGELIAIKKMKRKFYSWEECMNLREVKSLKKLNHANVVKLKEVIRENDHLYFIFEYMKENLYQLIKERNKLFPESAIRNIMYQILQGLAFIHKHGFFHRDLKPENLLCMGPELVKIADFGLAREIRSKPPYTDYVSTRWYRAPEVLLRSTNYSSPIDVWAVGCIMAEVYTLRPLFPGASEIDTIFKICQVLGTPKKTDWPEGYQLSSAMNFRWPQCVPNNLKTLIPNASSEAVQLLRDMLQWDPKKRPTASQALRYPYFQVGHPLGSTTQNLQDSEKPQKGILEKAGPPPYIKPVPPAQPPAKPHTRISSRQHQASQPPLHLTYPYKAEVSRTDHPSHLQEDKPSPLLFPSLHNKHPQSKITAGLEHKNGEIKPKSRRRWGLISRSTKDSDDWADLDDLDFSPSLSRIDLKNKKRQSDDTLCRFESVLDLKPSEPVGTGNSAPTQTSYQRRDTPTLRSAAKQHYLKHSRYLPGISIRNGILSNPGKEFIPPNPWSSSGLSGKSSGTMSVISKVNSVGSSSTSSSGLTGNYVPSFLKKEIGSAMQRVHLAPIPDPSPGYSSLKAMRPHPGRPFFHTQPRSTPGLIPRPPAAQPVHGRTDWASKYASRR
Sequence of RIPK2 (O43353 whole entry): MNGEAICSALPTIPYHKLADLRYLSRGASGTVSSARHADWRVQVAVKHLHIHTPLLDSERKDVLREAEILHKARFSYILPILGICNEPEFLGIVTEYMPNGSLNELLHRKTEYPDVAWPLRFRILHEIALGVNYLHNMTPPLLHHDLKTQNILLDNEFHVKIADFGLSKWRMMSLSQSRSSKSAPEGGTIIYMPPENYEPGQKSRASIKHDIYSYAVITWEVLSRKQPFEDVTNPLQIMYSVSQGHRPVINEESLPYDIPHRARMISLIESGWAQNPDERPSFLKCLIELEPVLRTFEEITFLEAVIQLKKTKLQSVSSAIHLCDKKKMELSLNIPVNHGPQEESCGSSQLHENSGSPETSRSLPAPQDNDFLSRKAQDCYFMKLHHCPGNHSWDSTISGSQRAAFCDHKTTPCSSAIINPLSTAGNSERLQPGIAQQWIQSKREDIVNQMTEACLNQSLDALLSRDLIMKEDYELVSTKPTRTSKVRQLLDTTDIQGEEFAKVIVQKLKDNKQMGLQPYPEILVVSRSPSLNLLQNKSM
Sequence of PDGFRB (P09619 whole entry): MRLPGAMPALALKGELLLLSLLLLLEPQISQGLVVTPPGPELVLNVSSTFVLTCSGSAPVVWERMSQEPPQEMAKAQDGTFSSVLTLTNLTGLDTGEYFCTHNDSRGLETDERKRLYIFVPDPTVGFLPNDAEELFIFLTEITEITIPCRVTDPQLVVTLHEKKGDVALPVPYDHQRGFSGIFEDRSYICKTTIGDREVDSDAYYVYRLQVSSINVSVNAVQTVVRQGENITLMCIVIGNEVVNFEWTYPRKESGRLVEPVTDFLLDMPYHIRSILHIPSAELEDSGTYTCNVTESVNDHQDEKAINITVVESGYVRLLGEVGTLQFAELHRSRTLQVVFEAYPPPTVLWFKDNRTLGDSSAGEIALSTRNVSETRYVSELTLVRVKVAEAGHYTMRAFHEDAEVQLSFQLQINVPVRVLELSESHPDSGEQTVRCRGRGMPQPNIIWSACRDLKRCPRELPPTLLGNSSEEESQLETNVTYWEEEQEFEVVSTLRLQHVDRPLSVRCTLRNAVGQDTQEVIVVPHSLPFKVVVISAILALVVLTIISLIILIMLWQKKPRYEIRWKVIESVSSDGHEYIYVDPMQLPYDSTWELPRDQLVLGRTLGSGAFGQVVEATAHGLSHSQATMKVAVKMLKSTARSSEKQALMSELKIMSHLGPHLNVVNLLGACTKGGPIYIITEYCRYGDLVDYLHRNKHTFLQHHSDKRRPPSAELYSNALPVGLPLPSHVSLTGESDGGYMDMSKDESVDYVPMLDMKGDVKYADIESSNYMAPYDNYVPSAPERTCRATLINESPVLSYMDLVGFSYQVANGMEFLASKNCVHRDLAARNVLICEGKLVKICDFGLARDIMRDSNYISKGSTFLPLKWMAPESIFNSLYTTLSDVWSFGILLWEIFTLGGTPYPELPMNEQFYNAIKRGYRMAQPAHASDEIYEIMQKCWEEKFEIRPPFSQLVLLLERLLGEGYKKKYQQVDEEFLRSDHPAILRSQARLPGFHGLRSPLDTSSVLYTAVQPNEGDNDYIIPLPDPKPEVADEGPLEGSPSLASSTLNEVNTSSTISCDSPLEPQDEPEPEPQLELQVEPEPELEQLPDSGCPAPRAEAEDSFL
Sequence of FRK (P42685 whole entry): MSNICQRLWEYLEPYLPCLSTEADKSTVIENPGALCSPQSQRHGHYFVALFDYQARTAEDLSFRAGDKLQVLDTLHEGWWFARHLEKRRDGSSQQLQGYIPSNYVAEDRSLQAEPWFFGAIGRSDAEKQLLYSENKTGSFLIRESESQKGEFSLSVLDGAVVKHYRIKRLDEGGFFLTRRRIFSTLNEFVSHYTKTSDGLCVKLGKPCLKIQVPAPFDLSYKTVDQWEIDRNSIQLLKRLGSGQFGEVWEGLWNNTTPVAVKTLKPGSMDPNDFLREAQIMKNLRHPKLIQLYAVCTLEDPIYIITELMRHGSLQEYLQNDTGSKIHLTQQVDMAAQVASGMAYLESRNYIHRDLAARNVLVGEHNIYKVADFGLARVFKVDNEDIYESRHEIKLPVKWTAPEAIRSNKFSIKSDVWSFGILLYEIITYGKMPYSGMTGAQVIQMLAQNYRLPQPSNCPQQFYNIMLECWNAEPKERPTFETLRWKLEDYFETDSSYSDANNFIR
Sequence of PIM2 (Q9P1W9 whole entry): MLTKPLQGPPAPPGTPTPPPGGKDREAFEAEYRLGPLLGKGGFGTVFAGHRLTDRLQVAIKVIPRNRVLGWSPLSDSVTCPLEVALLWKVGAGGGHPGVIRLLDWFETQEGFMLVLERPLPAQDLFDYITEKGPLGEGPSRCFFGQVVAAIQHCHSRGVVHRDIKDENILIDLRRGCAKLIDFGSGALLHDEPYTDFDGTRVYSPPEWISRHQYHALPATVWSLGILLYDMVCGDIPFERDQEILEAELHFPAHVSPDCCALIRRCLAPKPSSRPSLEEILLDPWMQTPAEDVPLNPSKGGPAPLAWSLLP
T3 sequence (O75676 whole entry): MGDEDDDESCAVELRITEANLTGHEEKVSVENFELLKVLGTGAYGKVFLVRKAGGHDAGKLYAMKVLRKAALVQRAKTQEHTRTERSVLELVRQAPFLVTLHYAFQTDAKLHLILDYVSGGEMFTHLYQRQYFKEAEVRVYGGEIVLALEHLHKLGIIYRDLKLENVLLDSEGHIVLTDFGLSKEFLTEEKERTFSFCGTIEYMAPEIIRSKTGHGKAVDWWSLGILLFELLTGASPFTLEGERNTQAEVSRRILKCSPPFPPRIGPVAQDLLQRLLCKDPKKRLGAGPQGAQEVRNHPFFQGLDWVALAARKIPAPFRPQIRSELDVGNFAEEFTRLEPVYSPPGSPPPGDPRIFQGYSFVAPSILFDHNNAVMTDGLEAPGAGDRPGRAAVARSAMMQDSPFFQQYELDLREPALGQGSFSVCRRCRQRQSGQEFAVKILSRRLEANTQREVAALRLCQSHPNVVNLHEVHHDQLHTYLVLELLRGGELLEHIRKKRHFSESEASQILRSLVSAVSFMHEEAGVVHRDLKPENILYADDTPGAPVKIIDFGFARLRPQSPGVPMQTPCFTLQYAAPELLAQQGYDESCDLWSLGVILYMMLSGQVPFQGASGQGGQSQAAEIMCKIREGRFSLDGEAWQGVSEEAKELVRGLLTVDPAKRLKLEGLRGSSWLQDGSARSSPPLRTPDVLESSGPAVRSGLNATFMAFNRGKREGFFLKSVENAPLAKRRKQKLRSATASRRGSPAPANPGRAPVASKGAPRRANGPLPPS

Which remaining binding at 1 µM (PLK3) does the source give for `Cn1c(=O)[nH]c2ccc(-c3cccc(C(=O)NC4CCn5ccnc5C4)c3)cc21` (stereo not drawn) [Z36-MP5] here?
Its remaining binding at 1 µM is 68%.

What about the remaining binding at 1 µM (PCTK2) of the same compound?
The remaining binding at 1 µM was 94%.

And the remaining binding at 1 µM (NEK11)?
Its remaining binding at 1 µM is 33%.

And the remaining binding at 1 µM (ICK)?
Its remaining binding at 1 µM is 100%.

What about the remaining binding at 1 µM [1] of the same compound?
Its remaining binding at 1 µM is 59%.

And the remaining binding at 1 µM (PAK4)?
Its remaining binding at 1 µM is 41%.

And the remaining binding at 1 µM (BRK)?
The remaining binding at 1 µM was 100%.

And the remaining binding at 1 µM (MST1R)?
Its remaining binding at 1 µM is 64%.

What about the remaining binding at 1 µM (PIM2) of the same compound?
The remaining binding at 1 µM was 91%.

What about the remaining binding at 1 µM (MYLK4) of the same compound?
The remaining binding at 1 µM was 93%.

What about the remaining binding at 1 µM (PKAC-alpha) of the same compound?
The remaining binding at 1 µM was 85%.

And the remaining binding at 1 µM (PDGFRB)?
The remaining binding at 1 µM was 93%.

What about the remaining binding at 1 µM (EGFR(L747-T751del,Sins)) of the same compound?
Its remaining binding at 1 µM is 84%.

And the remaining binding at 1 µM (ALK(L1196M))?
The remaining binding at 1 µM was 78%.

And the remaining binding at 1 µM (PKN2)?
The remaining binding at 1 µM was 98%.

And the remaining binding at 1 µM (CLK1)?
The remaining binding at 1 µM was 96%.

What about the remaining binding at 1 µM (IKK-epsilon) of the same compound?
The remaining binding at 1 µM was 84%.

And the remaining binding at 1 µM (PIKFYVE)?
The remaining binding at 1 µM was 96%.

What about the remaining binding at 1 µM [2] of the same compound?
Its remaining binding at 1 µM is 69%.

What about the remaining binding at 1 µM (CSNK1G3) of the same compound?
Its remaining binding at 1 µM is 74%.

And the remaining binding at 1 µM (FRK)?
Its remaining binding at 1 µM is 100%.

And the remaining binding at 1 µM (RIPK2)?
Its remaining binding at 1 µM is 94%.

What about the remaining binding at 1 µM (PHKG2) of the same compound?
Its remaining binding at 1 µM is 83%.

And the remaining binding at 1 µM (FLT3(D835Y))?
The remaining binding at 1 µM was 88%.
